Results reported in ChEMBL document CHEMBL1150525, “Phosphate derivatives of d4T as inhibitors of HIV” (Bioorg Med Chem Lett, 1993).

Columns and labels:
C8166 = assay: Ability to inhibit the replication of HIV-1 IIIB infected C8166 cells; assay type: functional, cell-based; details: Homo sapiens
[1] = Toxic concentration against HIV-1 IIIB in C8166 T-cells; assay type: ADME, cell-based; details: human, read-out: TC50 (the source's name)

SMILES | EC50 (C8166) [µM] | CC50 [1] [µM]
CCCOP(=O)(OCC1C=CC(n2cc(C)c(=O)[nH]c2=O)O1)OCC(Cl)(Cl)Cl (centres undefined) | 20 | 500
CCCOP(=O)(NC(C)C(=O)OC)OCC1C=CC(n2cc(C)c(=O)[nH]c2=O)O1 (centres undefined) | 200 | 250
CCCOP(=O)(OCCC)OCC1C=CC(n2cc(C)c(=O)[nH]c2=O)O1 (centres undefined) | > 200 | 200
Cc1cn(C2C=CC(COP(=O)(OCC(F)(F)F)OCC(F)(F)F)O2)c(=O)[nH]c1=O (centres undefined) | 15 | 500
COC(=O)C(C)NP(=O)(OCC1C=CC(n2cc(C)c(=O)[nH]c2=O)O1)OCC(Cl)(Cl)Cl (centres undefined) | 0.2 | 500
Cc1cn(C2C=CC(COP(=O)(OCC(Cl)(Cl)Cl)OCC(Cl)(Cl)Cl)O2)c(=O)[nH]c1=O (centres undefined) | 0.4 | 150
Cc1cn([C@H]2C=C[C@@H](CO)O2)c(=O)[nH]c1=O [STAVUDINE] | 0.08 | 50
